In PMC10734772 (Turkish Journal of Chemistry, 2021):

| melting point [°C] | Structure (SMILES) |
| --- | --- |
| 105 | Cc1ccc(NC(=O)c2ccc(CN3CCN(c4ncccn4)CC3)cc2)cc1Br [Compound 4a, N-(3-Bromo-4-methylphenyl)-4-((4-(pyrimidin-2-yl)piperazin-1-yl)methyl)benzamide] |
| 135 | COc1ccc(CN2CCN(Cc3ccc(C(=O)Nc4ccc(C)c(Br)c4)cc3)CC2)c(OC)c1OC [Compound 4b, N-(3-Bromo-4-metylphenyl)-4-((4-(2,3,4-trimethoxybenzyl)piperazin-1-yl)methyl)benzamide] |
| 116 | Cc1ccc(NC(=O)c2ccc(CN3CCOCC3)cc2)cc1Br [Compound 4c, N-(3-Bromo-4-methylphenyl)-4-(morpholinomethyl)benzamide] |
